System: APTK-OVA tumors
Assay: Adoptive transfer of UA-conditioned OT-1 T cells into Rag1−/− mice
Type: in vivo, mouse
Method: For adoptive cell transfer, purified splenic T cell from OT1 mice were isolated and activated using αCD3/αCD28 stimulation beads for 48 h. After magnetic bead removal, 1×10^6 T of activated T cell were intravenously injected into Rag1−/− recipients. To study survival of transferred T cells, stimulated OT-1 T cells were injected into mice without tumors. Subsequently, after 7 days, spleens were isolated and splenocytes were stained for the CD8+ subsets as described below. To understand antitumor immunity conferred by transferred OT-1 lymphocytes, cells were injected into mice carrying APTK-OVA tumors 10 days after subcutaneous organoid transplantation. Tumor growth was assessed as described above. Mice were kept under regular chow food for the T cell adoptive transfer experiment and sacrificed collectively when maximum tumor diameter extended 1.5 cm.
Tumors were minced and digested with Tumor & Tissue Dissociation Reagent (BD Horizon) for 30 min. The remaining organ pieces were filtered through a 70 µm cell strainer. Cells were then washed with PBS 1% BSA and 2 mM EDTA. Immune cells were enriched on a 30%/40%/75% Percoll gradient after a 1700 rpm 17 min centrifugation. Then, tumor immune filtrates or activated T cells were stained with Fixable Viability Dye-eF780 (65-0865-14; eBioscience), αCD45-FITC (30-F11; 11-0451-85; eBioscience), αCD11b-BV650 (M1/70; 56340; BD) α-CD11c-BV785 (HL3; 563735; BD), aLy6G-BV605 (53-6.7; 563005; BD), aLy6C-AF700 (HK1.4; 128024; Biolegend), aF4/80-PE (BM8; 12-4801-82, eBioscience), aPD-L1-PECy7 (MIH5; 25-5982-80, eBioscience); or with Fixable Viability Dye-eF780 (ebioscience), αCD45-BV786 (30-F11; 564225; BD), αCD4-BUV496 (GK1.5; 564667; BD), αCD8-BV605 (100744; Biolegend), aPD1-APC (J43; 17-9985-82; eBioscience), aTIM-3-PECy7 (RMT3-23; 119715; Biolegend), aCTLA4-PE (UC10-4B9; 106305; Biolegend) and aLag3-BV421 (C9B7W; 125221, Biolegend); or with Fixable Viability Dye-eF780 (eBioscience), αCD4-FITC (H129.19; 553650; BD), αCD8-APC (53-6.7; 17-0081-83; eBioscience), αCD44-AF400 (IM7; 103026; Biolegend), αCD62L-BV785 (MEL-14; 104440; Biolegend), αSca-1-PerCP-Cy5.5 (D7; 45-5981-82; eBioscience), αCD95-PE (Jo2; 554258; BD); or with Fixable Viability Dye-eF780 (eBioscience), αCD8-BV650 (53-6.7; 563234; BD), αCD4-BUV496 (GK1.5; 564667; BD), αCD127-APC (A7R34; 17-1271-82; eBioscience), αCD95-FITC (SA367H8;152605; Biolegend), αCD44-AF400 (IM7; 103026; Biolegend), αCD62L-BV785 (MEL-14; 104440; Biolegend), αSca-1-PerCP-Cy5.5 (D7; 45-5981-82; eBioscience) followed by intracellular staining of aTCF1-PE (S33-966; 564217; BD), or PGC-1α (sc-518025; D-5; santa cruz), or aCyclinD1 (MA5-28534, DCS-6; Invitrogen) with transcription factor buffer set kit (BD Biosciences). To study cytokine expression, tumor immune infiltrates were stimulated ex vivo with 20 ng/mL PMA and […] Ionomycin (Sigma) for 3 h in T cell activation medium with Brefeldin A (Biolegend). For T cell in vitro activation experiments over several days, Brefeldin A was added to the medium for the last 3 hours. Cells were then stained with Fixable Viability Dye-eF780 (eBioscience), αCD8-PeCy7 (53.6-7; 100722; Biolegend), αCD4-AF700 (GK1.5; 100429; Biolegend), and intracellular staining for cytokine assessment was performed with BD Cytofix/Cytoperm (BD) with 20 min fixation and overnight incubation with αGranzyme B-FITC (GB11; 515403; Biolegend), αIFNγ-PerCPCy5.5 (XMG1.2; 45-7311-82; eBioscience) and αTNFa-BV711 (MP6-XT22; 563944; BD). For flow cytometric analysis of mitochondria and lysosomes 500 μl of Mitotracker Red (200 nM; ThermoFisher) or Lysotracker Red DND-99 (75 nM; ThermoFisher) were applied followed by surface staining. To study changes in mitochondrial membrane potential, Mitoprobe TMRM kit (ThermoFisher) was used according to the manufacturer's instructions. Cell proliferation was assessed by CellTrace Violet (Invitrogen, C34557) at a concentration of […] according to manufacturer's instructions. […]

Structure (SMILES): O=c1oc2cc(O)ccc2c2ccc(O)cc12 [UA, Urolithin A]
- CD62L expression in CD8+ TIL (UA-T cell transfer): remained unchanged
- expression of CD44 in CD8+ TIL (UA-T cell transfer): lower expression
- number of TCF1HiCD8+ tumor infiltrating T cells (UA-T cell transfer): higher number
- suppression of APTK-OVA tumors (UA-conditioned vs control OT-I T cells): more substantial tumor suppression
- Tim3HiPD1Hi terminally exhausted CD8+ T cells in the TME (UA-pretreated T cells): less
